The test system of data set [1] is 5′-r(U)10. The note with it: earlier work (17); cited from earlier work.
The test system of data set [2] is 5′-r(U)10. In words: Melting temperature (Tm) with 5′-r(U)10. The note with it: for Melting temperature (Tm), 5′-r(U)10 / Melting temperature (Tm), 5′-r(U)10, cooling curve: Table 2, medium salt buffer, pH 7.0; for Melting temperature (Tm), 5′-r(U)10: heating curve, 1 K/min; for Melting temperature (Tm), 5′-r(U)10, cooling curve: value in parentheses = cooling curve. The class given is binding.

For data set [3], the system named is complementary DNA oligomers. In words: Melting temperature (Tm) with complementary DNA oligomer, Table 1. The class given is binding. The settings on record: medium salt buffer: 100 mM NaCl, 10 mM phosphate, 0.1 mM EDTA, pH 7.0; heating rate 1 K/min; UV 254 nm. As for the experimental part:
(§1) Binding affinity. The binding affinity towards complementary RNA and DNA oligomers was measured by obtaining the Tm-curves (Table 1). As expected, incorporation of both the pyrrolidinone and the pyrrolidine analogue into the PNA strand results in destabilization against DNA and RNA compared to unmodified PNA (entry 1 vs. 2 and 3).

Data set [4] relates to complementary RNA oligomers. Nature of the data set: Melting temperature (Tm) with complementary RNA oligomer, Table 1. The class given is binding. The note with it: medium salt buffer: 100 mM NaCl, 10 mM phosphate, 0.1 mM EDTA, pH 7.0; heating rate 1 K/min; UV 254 nm. As for the experimental part:
as §1

Data set [5] relates to DNA target 5′-d(TTT-TXT-TTT-T)-3′, X = G. In words: Melting temperature (Tm) with mismatch DNA target, X = G. The class given is binding. The settings on record: Table 3; for Melting temperature (Tm), X = G: heating curve, medium salt buffer, pH 7.0; for Melting temperature (Tm), X = G, cooling curve: value in parentheses = cooling curve. An excerpt:
(§2) The complex between PNA 2110 and DNA was further evaluated.

The test system of data set [6] is 5′-d(T)10. In words: Melting temperature (Tm) with 5′-d(T)10. In kind it is binding. The note with it: for Melting temperature (Tm), 5′-d(T)10 / Melting temperature (Tm), 5′-d(T)10, cooling curve: Table 2; for Melting temperature (Tm), 5′-d(T)10 / Melting temperature (Tm), X = T: heating curve; for Melting temperature (Tm), 5′-d(T)10 / Melting temperature (Tm), 5′-d(T)10, cooling curve / Melting temperature (Tm), X = T: medium salt buffer, pH 7.0; for Melting temperature (Tm), 5′-d(T)10: 1 K/min; for Melting temperature (Tm), 5′-d(T)10, cooling curve / Melting temperature (Tm), X = T, cooling curve: value in parentheses = cooling curve; for Melting temperature (Tm), X = T / Melting temperature (Tm), X = T, cooling curve: Table 3, DNA target 5′-d(TTT-TXT-TTT-T)-3′.

Data set [7] has as its system DNA target 5′-d(TTT-TXT-TTT-T)-3′, X = C. In words: Melting temperature (Tm) with mismatch DNA target, X = C. The settings on record: Table 3; for Melting temperature (Tm), X = C: heating curve, medium salt buffer, pH 7.0; for Melting temperature (Tm), X = C, cooling curve: value in parentheses = cooling curve. The class given is binding.
From the text: as §2

In data set [8] the test system is RNA antiparallel: 5′-AGA GUA UGA GUA-3′. Nature of the data set: Thermal stability (Tm) of complex with antiparallel RNA. The class given is binding. The settings on record: medium salt buffer, pH 7.0. Here is the method: (§3) The binding properties of pyr-PNA oligomer consisting of 10 monomers of the following sequence: H-CTC ATA CTC T-Lys-NH2 were investigated by measuring the thermal stability of the complexes formed with sequence complementary DNA and RNA, respectively, as compared to the stability for the corresponding aeg-PNA oligomer.
(§4) The stability expressed as the melting temperature (Tm), defined as the temperature at which 50% of the complexes have been dissociated, was determined as described by Arghya Ray et al (32).
(§5) Measured in medium salt buffer: 100 mM NaCl, 10 mM Na-phosphate, 0.1 mM EDTA, pH=7.0.

The test system of data set [9] is DNA parallel: 5′-dATG AGT ATG AGA-3′. In words: Thermal stability (Tm) of complex with parallel DNA. The settings on record: medium salt buffer, pH 7.0. The class given is binding. As for the experimental part:
as §3, §4, §5

For data set [10], the system named is DNA antiparallel: 5′-dAGA GTA TGA GTA-3′. Nature of the data set: Thermal stability (Tm) of complex with antiparallel DNA. The class given is binding. The note with it: pH 7.0; for Tm, DNA antiparallel, down: medium salt buffer. Here is the method:
as §3, §4, §5

Data set [11] has as its system DNA target 5′-d(TTT-TXT-TTT-T)-3′, X = A. Nature of the data set: Melting temperature (Tm) with mismatch DNA target, X = A. The class given is binding. The settings on record: Table 3.
From the text: as §2

Data set [12] has as its system poly A. In words: Thermal denaturation (Tm) with poly A. In kind it is binding. The settings on record: for Melting temperature (Tm), Poly A: measured from 10 to 90 °C, medium salt buffer, pH 7.0, 0.5 K/min; for Melting temperature (Tm), Poly A, measured from 90 to 10 °C: value in parentheses. An excerpt:
(§6) Binding. The binding of PNA 1164 and PNA 2121 to poly dA and poly A was studied by thermal denaturation (Tm, Table 4). Also listed are the values given by Hickman et. al. (29) The thermal stability results presented in Table 4 clearly indicate that a T5-PNA-oligomer having (2R, 4S)-pyrrolidine backbone (PNA 2121) forms stronger complexes with both poly dA and poly A as compared to the (2R, 4R)-pyrrolidine isomer (entry 3) and also compared to the parent aminoethylglycine PNA (PNA 1164, entry 1). These complexes are ascribed to triplexes and further studies on (pyrimidine-purine mixed sequences) pyrrolidine PNAs are required to establish whether the present results can be extended to duplex structures and are generally valid. Such studies are now in progress.

The test system of data set [13] is poly dA. Nature of the data set: Thermal denaturation (Tm) with poly dA. The note with it: for Melting temperature (Tm), Poly dA: measured from 10 to 90 °C, medium salt buffer, pH 7.0, 0.5 K/min; for Melting temperature (Tm), Poly dA, measured from 90 to 10 °C: value in parentheses. The class given is binding.
From the text: as §6

Setting [14] is: as opposed to the parent PNA 186.
[15] abbreviates: compared with PNA 186 (Table 2, entry 1 and 3).
Where [16] appears, read: melting curves at pH 9 (not shown).

{LysNH2} = C-terminal lysine amide

For “H-(A*)10-LysNH2 [PNA 2020, reference compound]”, the “Tm depression per modification as compared to unmodified PNA against r(U)10” value in [1] is 1 °C. For the same substance, in data set [2], the “Melting temperature (Tm), 5′-r(U)10” value came out at 25.5 °C.
As for H-TAC-TCA#-TAC-TCT-LysNH2 [PNA 2104], the “Melting temperature (Tm), DNA” value in data set [3] was determined as 28.5 °C. The “Melting temperature (Tm), RNA” value in data set [4] amounted to 44.5 °C.
In the case of “H-Gly-(A)10-NH2 [PNA 186, reference compound]”, in data set [5], the “Melting temperature (Tm), X = G” value is 40.5 (40.5) °C and the “Melting temperature (Tm), X = G, cooling curve” value is 40.5 (40.5) °C. Further, in data set [6], the “Melting temperature (Tm), 5′-d(T)10” value is 55.5 (55.5) °C; the “Melting temperature (Tm), 5′-d(T)10, cooling curve” value was 55.5 (55.5) °C; the “Melting temperature (Tm), X = T” value is 55.5 °C; the “Melting temperature (Tm), X = T, cooling curve” value was “(55.5) °C”. Moreover, in [2], the “Melting temperature (Tm), 5′-r(U)10” value was 35.5 (35.5) °C and the “Melting temperature (Tm), 5′-r(U)10, cooling curve” value was 35.5 (35.5) °C. In [7], the “Melting temperature (Tm), X = C” value is 36.5 (36.5) °C and the “Melting temperature (Tm), X = C, cooling curve” value was 36.5 (36.5) °C.
Consider “H-TAC-TCA*-TAC-TCT-LysNH2 (TACTCATACTCT; chemistry not fully specified) [PNA 2075, PNA dodecamer with one A* = (3S, 5R) pyrrolidone PNA monomer]”, for which, in [3], the “Melting temperature (Tm), DNA” value worked out at 41.0 °C. The “Melting temperature (Tm), RNA” value in data set [4] stood at 53.8 °C.
Take “H-CTC ATA CTC T-Lys-NH2 [PNA 2232] (CTCATACTCT; all peptide nucleic acid (PNA), 3' {LysNH2}; further chemistry not fully specified) [pyr PNA oligomer of 10 monomers]”: the “Tm, RNA antiparallel, down” value in data set [8] was “(41.0°) °C”. Besides, the “Tm, DNA parallel, down” value in data set [9] was “(61.5°) °C”. Also, the “Tm, DNA antiparallel, down” value in data set [10] is “(58.0°) °C”.
As for “H-TAC-TCA-TAC-TCT-LysNH2 (TACTCATACTCT; all peptide nucleic acid (PNA), 3' {LysNH2}) [PNA 2005, unmodified PNA dodecamer]”, in [3], the “Melting temperature (Tm), DNA” value stood at 49.5 °C. The “Melting temperature (Tm), RNA” value in data set [4] came to 59.5 °C.
For the substance H-(A#)10-LysNH2 [PNA 2110], in [5], the “Melting temperature (Tm), X = G” value amounted to 68.5 °C and the “Melting temperature (Tm), X = G, cooling curve” value was 37.0 °C. Also, in [6], the “Melting temperature (Tm), 5′-d(T)10” value stood at 79.0 °C; the “Melting temperature (Tm), 5′-d(T)10, cooling curve” value was found to be 41.0 °C; the “Melting temperature (Tm), X = T” value was 79.0 °C; the “Melting temperature (Tm), X = T, cooling curve” value is “(41.0) °C”. Also, the “Hysteresis of melting curves against DNA” value in [6] (setting [14]) is reported as “significant hysteresis was detected”. Besides, in [6] (setting [15]), the “ΔTm/mod towards DNA” value was “+2.5 °C”. Moreover, the “Recognition of 5′-d(T)10 (sequence specificity)” value in [6] (from mismatch Tm values of Table 3) is given as “sequence specific”. The “Lowering of Tm at pH 9 instead of pH 7, against DNA” value in [6] (setting [16]) is “about 3.5 °C”. Moreover, in data set [11] (heating curve, medium salt buffer, pH 7.0), the “Melting temperature (Tm), X = A” value is 67.5 °C. In data set [11] (value in parentheses = cooling curve), the “Melting temperature (Tm), X = A, cooling curve” value came out at 35.5 °C. Further, in data set [2], the “Melting temperature (Tm), 5′-r(U)10” value amounted to 60.0 °C and the “Melting temperature (Tm), 5′-r(U)10, cooling curve” value is 45.5 °C. Besides, the “Hysteresis of melting curves against RNA” value in [2] (setting [14]) is listed as “significant hysteresis was detected”. For the same substance, the “ΔTm/mod towards RNA” value in data set [2] (setting [15]) was “+2.5 °C”. In addition, the “Lowering of Tm at pH 9 instead of pH 7, against RNA” value in data set [2] (setting [16]) was roughly 1.5 °C. Also, in [7], the “Melting temperature (Tm), X = C” value came out at 71.0 °C and the “Melting temperature (Tm), X = C, cooling curve” value stood at 36.0 °C.
With H-(T#)5-LysNH2 [PNA 2121], in data set [12], the “Melting temperature (Tm), Poly A” value was 79.0 °C and the “Melting temperature (Tm), Poly A, measured from 90 to 10 °C” value was found to be 51.5 °C. For the same substance, in data set [13], the “Melting temperature (Tm), Poly dA” value stood at 78.5 °C and the “Melting temperature (Tm), Poly dA, measured from 90 to 10 °C” value is 44.0 °C.
Take “H-CTC ATA CTC T-Lys-NH2 [PNA 2244] (CTCATACTCT; all peptide nucleic acid (PNA), 3' {LysNH2}) [aeg PNA oligomer of 10 monomers, reference compound]”: in [9], the “Tm, DNA parallel, down” value is “(43.5°) °C” and the “Tm, DNA parallel, up” value amounted to 44.0° °C. Besides, the “Tm, DNA antiparallel, down” value in [10] is “(43.0°) °C”. Besides, in data set [10] (medium salt buffer: 100 mM NaCl, 10 mM Na-phosphate, 0.1 mM EDTA), the “Tm, DNA antiparallel, up” value worked out at 45.0° °C.
On to “H-(T)5-LysNH2 [PNA 1164, reference compound]”, for which, in [12], the “Melting temperature (Tm), Poly A” value worked out at 64.0 °C and the “Melting temperature (Tm), Poly A, measured from 90 to 10 °C” value came to 58.5 °C. In [13], the “Melting temperature (Tm), Poly dA” value amounted to 53.0 °C and the “Melting temperature (Tm), Poly dA, measured from 90 to 10 °C” value was found to be 45.5 °C.
